Assay results from US20260207600A1, “METHODS OF TREATMENT WITH MYOSIN MODULATOR” (MYOKARDIA, INC., priority 2019, published 2026).
“Also recorded” adds a separate entry of the source. Where two headings read alike, the source gives them in different places.

Tests used:
[1] = system: conscious Sprague-Dawley rats; assay: Positive inotropic challenge (dobutamine, levosimendan) after supra-therapeutic mavacamten, echocardiography; type: in vivo, rat; conditions: supra-therapeutic dose, healthy rats
Protocol: Methods: The responsiveness of mavacamten-induced cardio-depression to positive inotropic challenges was assessed in a set of conscious Sprague-Dawley rats. In these animals, functional reserve was assessed via either dobutamine (+DOB, 10 μg/kg/min IV for 10 min, n=7) or levosimendan (+LEVO, 0.3 μmol/kg IV over […]; n=6) challenges given 3 hrs following a single-dose administration of MAVA (at 4 mg/kg, PO). Cardiac function/geometry were recorded and compared at three separate time-points/days: prior to dosing (i.e., at baseline) and at 3 hrs post-dosing both before as well as during the inotropic challenge; in order to account for the levosimendan-induced changes in loading conditions, an additional echocardiographic examination was performed following acute preload-restoration in LEVO-treated rats (+LEVO/F, 0.9% NaCl at 30 mL/kg/hr IV).
In these experiments, left-ventricular fractional shortening (FS), an index of systolic performance, as well as LV dimensions/volumes and heart rates were measured using a high-frequency transducer and parasternal long-axis transthoracic views (Vevo2100, VisualSonic). FS was defined as the end-diastole normalized change in internal dimensions/diameter of the left ventricle between end-systole (LVESd) and end-diastole (LVEDd) (i.e., FS=100·[LVEDd−LVESd]/LVEDd). LV volumes were derived assuming a Teichholz model (LVV=7·[2.4+LVid]−1·LVid3).

CYP2C9 = CYP2C9 (Homo sapiens, UniProt P11712); assay: In vitro contribution of CYP enzymes to mavacamten metabolism; type: in vitro ADME
Sequence of CYP2C9 (P11712 whole entry): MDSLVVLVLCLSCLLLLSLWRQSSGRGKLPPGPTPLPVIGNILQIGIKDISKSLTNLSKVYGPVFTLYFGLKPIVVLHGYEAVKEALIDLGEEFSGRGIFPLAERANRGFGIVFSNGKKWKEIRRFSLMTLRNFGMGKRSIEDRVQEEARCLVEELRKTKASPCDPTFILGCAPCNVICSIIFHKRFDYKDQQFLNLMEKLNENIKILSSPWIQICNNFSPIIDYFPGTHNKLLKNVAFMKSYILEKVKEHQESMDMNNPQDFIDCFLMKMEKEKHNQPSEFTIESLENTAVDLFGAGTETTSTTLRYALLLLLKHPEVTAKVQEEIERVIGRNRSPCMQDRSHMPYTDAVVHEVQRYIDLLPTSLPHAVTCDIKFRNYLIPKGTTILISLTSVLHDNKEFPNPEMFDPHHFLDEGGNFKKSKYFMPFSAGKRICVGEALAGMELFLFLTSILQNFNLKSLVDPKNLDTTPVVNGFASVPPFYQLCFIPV

[2] = Half-life and clearance analysis from early clinical studies by CYP2C19 metabolizer phenotype; type: in vivo, human; conditions: for half-life / clearance: oral; for clearance: read-out: clearance rate
Protocol: The effect of CYP2C19 phenotype and genotype on the metabolism function of the CYP2C19 enzyme has been presently investigated. […] Specifically, normal metabolizers typically have a half-life of from about 6 to about 9 days, e.g., about 7 days (1 week), whereas poor metabolizers have a longer half-life, e.g., from about 12 to about 30 days, or often from about 16 to about 28 days based on current data in humans.
Half-life and clearance rate were analyzed after a single oral dose. Clearance rate was calculated as CL=Dose*F/AUCinf. […] Half-life and clearance rate were analyzed after the last dose upon reaching steady state. Clearance rate was calculated as CL,ss=Dose*F/AUC(0-T). Both trials were combined and analyzed by one-way ANOVA, followed by Tukey's multiple comparison test.
UM (rapid/ultra-rapid metabolizer) is *1/*17 or *17/*17; EM (extensive metabolizer) is *1/*1; IM (intermediate metabolizer) is *1/*2 or *17/*2; and PM (poor metabolizer) is *2/*2 or *2/*3.
Similar studies were performed for CYP3A5 and CYP2C9 polymorphisms.

[3] = Stable form analysis (slurry experiments, XRPD); type: physicochemical; conditions: for XRPD Result (stable form screening): Lot 2-4
Protocol: Slurrying. Slurries of the API were prepared by adding sufficient solids to a given solvent or solvent system at ambient conditions or at elevated temperature such that undissolved solids were present. The mixtures were then agitated in a closed vial at ambient or elevated temperature for an extended period of time. Solids were collected by vacuum filtration and analyzed.
A stable form analysis of the API (Lot 2-4) was performed to identify the preferred solid form within typical process conditions (e.g., ambient to 85° C., atmospheric pressure, with a variety of solvents including water).
A total of 17 slurries were held stirring at ambient temperature or with temperature cycling between 20 and 30 or 40° C. (with a few brief exposures to approximately 46° C.) for extended time periods (Table 13.4). Solids from the slurry experiments were filtered, air-dried, then analyzed by XRPD.

[4] = human, in vivo, CYP2C19 normal metabolizers
[5] = human, in vivo, CYP2C19 poor metabolizers

CC(C)n1c(=O)cc(N[C@@H](C)c2ccccc2)[nH]c1=O [mavacamten, (S)-3-Isopropyl-6-((1-phenylethyl)amino)pyrimidine-2, 4(1H,3H)-dione]
reduction in ejection fraction [1]: ~50%
percent contribution to the metabolism of mavacamten (CYP2C9): 7.5%
clearance and terminal half-life by phenotype ([2]; CYP2C19 poor metabolizers vs other patients (UM, EM and IM)): lower clearance and longer terminal half-life
increase in exposure ([2]; PM genotype compared to normal CYP 2C19 metabolizer (NM) genotype): approximately 4 fold
effect of CYP3A4/5 (CYP3A5) and CYP2C9 polymorphisms on pharmacokinetics (half-life, clearance rate) ([2]; human, in vivo): insignificant effects; also recorded: did not have a significant effect
half-life [2, 4]: 6 to 9 days
clearance [2, 4]: 10 to 100 mL/min
half-life [2, 5]: 12 to 30 days
clearance [2, 5]: < 15 mL/min
solid form obtained from slurry experiments (XRPD) ([3]; 17 slurries, ambient temperature or cycling between 20 and 30 or 40° C., extended time): All slurry experiments yielded Form A, except one with chloroform
XRPD Result (stable form screening) ([3]; Anisole, Slurry, ~50° C., 4 d): Form A
XRPD Result (stable form screening) ([3]; CHCl3, TC, 20 to 30° C., 10 d): Form A +
XRPD Result (stable form screening) ([3]; DCM, Slurry, RT, 17 d): Form A
XRPD Result (stable form screening) ([3]; DMF:CHCl3 (20:80), Slurry, RT, 17 d): Form A
XRPD Result (stable form screening) ([3]; DMF:EtOH (20:80), Slurry, RT, 17 d): Form A
XRPD Result (stable form screening) ([3]; DMSO:water (90:10), Slurry, RT, 3 d, TC, 20 to 30° C., 10 d): Form A
XRPD Result (stable form screening) ([3]; EtOAc, TC 20 to 40° C., 10 d): Form A
XRPD Result (stable form screening) ([3]; EtOH, TC 20 to 40° C., 10 d): Form A
XRPD Result (stable form screening) ([3]; HFIPA:acetone (10:90), Slurry, RT, 17 d): Form A
XRPD Result (stable form screening) ([3]; MIBK, Slurry, ~80° C., 1 d): Form A
XRPD Result (stable form screening) ([3]; MeOH, Slurry, RT, 3 d, TC, 20 to 30° C., 10 d): Form A
XRPD Result (stable form screening) ([3]; NMP:MeOH (10:90), Slurry, RT, 17 d): Form A
XRPD Result (stable form screening) ([3]; NMP:toluene (80:20), Slurry, RT, 17 d): Form A
XRPD Result (stable form screening) ([3]; NMP:water (50:50), Slurry, RT, 17 d): Form A
XRPD Result (stable form screening) ([3]; THF:water (75:25), TC, 20 to 30° C., 10 d): Form A
XRPD Result (stable form screening) ([3]; THF, Slurry, RT, 3 d, TC, 20 to 40° C., 10 d): Form A
XRPD Result (stable form screening) ([3]; iPrOH, TC, 20 to 40° C., 10 d): Form A
